Experimental findings from patent US4877795A, “4H-quinolizin-4-one compounds useful for the treatment of allergic bronchial asthma, allergic rhinitis atropic dermatitis and the like” (Kissei Pharmaceutical Co., Ltd., priority 1987, dated 1989) are described below.

In one experiment the test system is IgE. The experiment is described as follows: Determination of Igs produced in in vitro culture: inhibition of IgE secreted by spleen cells (adoptive secondary immune response to DNP-As), ELISA. Type of experiment: cell-based, BALB/c mice. The following applies: 4 days culture; for inhibition at 1 µg/mL / Inhibition % of IgE: 1.0 μg/ml; for inhibition at 2.5 µg/mL: 2.5 μg/ml; for inhibition at 0.25 µg/mL: 0.25 μg/ml; for inhibition at 5 µg/mL: 5.0 μg/ml; for inhibition at 40 µg/mL: 40.0 μg/ml. The method, then:
(§1) Determination of Igs produced in in vitro culture
(§2) BALB/c mice were immunized intraperitoneally with 5 μg of DNP-As adsorbed in 4 mg aluminum hydroxide gel. 4 weeks after the immunization, the spleens were excised from the mice and 5×10^7 spleen cells were transferred intravenously into the recipient mice which had been exposed to 600 rad of X-ray irradiation. Immediately after cell transfer, the recipients were then immunized intraperitoneally with 5 μg of DNP-As adsorbed in 4 mg aluminum hydroxide gel to induce adoptive secondary immune response. Further 4 weeks after the immunization of recipients, the spleens were excised from them and the spleen cell suspensions 5×10^6 cells/ml were cultured with or without a compound to be tested in 96-well micro plates at 37° C. for 4 days. IgE and IgG secreted into the culture supernatant was each determined correspondingly by ELISA and the inhibitory effect was calculated according to the following equation. [formula]
(ELISA stands for enzyme-linked immunosorbent assay.)

The test system of the next experiment is IgG. Description: Determination of Igs produced in in vitro culture: inhibition of IgG secreted by spleen cells (adoptive secondary immune response to DNP-As), ELISA. Type of experiment: cell-based, BALB/c mice. The following applies: 4 days culture; for Inhibition % of IgG / inhibition at 1 µg/mL: 1.0 μg/ml; for inhibition at 2.5 µg/mL: 2.5 μg/ml; for inhibition at 0.25 µg/mL: 0.25 μg/ml; for inhibition at 5 µg/mL: 5.0 μg/ml; for inhibition at 40 µg/mL: 40.0 μg/ml. The method, then: as §1, §2

One may read the inhibition as the change of the read-out against control, counted positive when it falls. A lower inhibition goes with a weak effect. For `CSc1c(C#N)c(=O)n2cccc(C)c2c1C(=O)N1CCC(c2ccccc2)CC1` (single isomer, unassigned) [S-81A, 3-Cyano-9-methyl-2methylthio-1-(4-phenylpiperidinocarbonyl)-4H-quinolizin-4-one], the inhibition at 1 µg/mL in the experiment with IgE (Mus musculus, 96 h) amounted to 46%. Besides, the “Inhibition % of IgG” value with IgG came to 17%.

For the compound `CSc1c(C#N)c(=O)n2cccc(C)c2c1C(=O)N1CCC(c2ccccc2)CC1` (single isomer, unassigned) [S-81B, 3-Cyano-9-methyl-2methylthio-1-(4-phenylpiperidinocarbonyl)-4H-quinolizin-4-one], in the experiment on IgE, the “Inhibition % of IgE” value is reported as 50%. Moreover, the “Inhibition % of IgG” value in the experiment with IgG came to 4%.

As for `CSc1c(C#N)c(=O)n2ccccc2c1C(=O)N1CCC(Cc2ccccc2)CC1` (single isomer, unassigned) [S-82A, 1-(4-Benzylpiperidinocarbonyl)-3-cyano-2-methylthio-4H-quinolizin-4-one], the inhibition at 1 µg/mL in the experiment on IgE (Mus musculus, 96 h) is 43%; in the experiment with IgG (Mus musculus, 96 h), 18%.

For the compound `CSc1c(C#N)c(=O)n2ccccc2c1C(=O)N1CCC(Cc2ccccc2)CC1` (single isomer, unassigned) [S-82B, 1-(4-Benzylpiperidinocarbonyl)-3-cyano-2-methylthio-4H-quinolizin-4-one], the inhibition at 2.5 µg/mL was determined as 63% in the experiment with IgE (Mus musculus, 96 h) and 8% in the experiment on IgG (Mus musculus, 96 h).

Consider `N#Cc1c(SCc2ccccc2)c(C(=O)N2CCC(c3ccccc3)CC2)c2ccccn2c1=O` (single isomer, unassigned) [S-83A, 2-Benzylthio-3-cyano-1-(4-phenylpiperidinocarbonyl)-4H-quinolizin-4-one], for which the inhibition at 1 µg/mL with IgE (Mus musculus, 96 h) was determined as 67%; in the experiment on IgG (Mus musculus, 96 h), 23%.

In the case of `N#Cc1c(SCc2ccccc2)c(C(=O)N2CCC(c3ccccc3)CC2)c2ccccn2c1=O` (single isomer, unassigned) [S-83B, 2-Benzylthio-3-cyano-1-(4-phenylpiperidinocarbonyl)-4H-quinolizin-4-one], the inhibition at 0.25 µg/mL in the experiment on IgE (Mus musculus, 96 h) was determined as 41%; in the experiment on IgG (Mus musculus, 96 h), 10%.

As for `N#Cc1c(SCc2ccccc2)c(C(=O)N2CCC(Cc3ccccc3)CC2)c2ccccn2c1=O` (single isomer, unassigned) [S-84A, 1-(4-Benzylpiperidinocarbonyl)-2-benzylthio-3-cyano-4H-quinolizin-4-one], the inhibition at 1 µg/mL amounted to 58% in the experiment with IgE (Mus musculus, 96 h) and 22% in the experiment with IgG (Mus musculus, 96 h).

Take `N#Cc1c(SCc2ccccc2)c(C(=O)N2CCC(Cc3ccccc3)CC2)c2ccccn2c1=O` (single isomer, unassigned) [S-84B, 1-(4-Benzylpiperidinocarbonyl)-2-benzylthio-3-cyano-4H-quinolizin-4-one]: the “Inhibition % of IgE” value in the experiment with IgE turned out to be 58%. For the same compound, the “Inhibition % of IgG” value in the experiment on IgG came to 32%.

Turning to `CSc1c(C#N)c(=O)n2ccccc2c1C(=O)N1CCC2CCCCC21` (single isomer, unassigned) [S-85A, 3-Cyano-2-methylthio-1-(perhydroindol-1-yl-carbonyl)-4H-quinolizin-4-one], the inhibition at 5 µg/mL was determined as 43% in the experiment with IgE (Mus musculus, 96 h) and 23% in the experiment on IgG (Mus musculus, 96 h).

For `CSc1c(C#N)c(=O)n2ccccc2c1C(=O)N1CCC2CCCCC21` (single isomer, unassigned) [S-85B, 3-Cyano-2-methylthio-1-(perhydroindol-1-yl-carbonyl)-4H-quinolizin-4-one], the inhibition at 2.5 µg/mL stood at 39% in the experiment with IgE (Mus musculus, 96 h) and 19% with IgG (Mus musculus, 96 h).

Turning to `CSc1c(C#N)c(=O)n2ccccc2c1C(=O)OCC1CCCCC1` [S-1, Cyclohexylmethyl 3-cyano-2-methylthio-4H-quinolizin-4-one-1-carboxylate], the inhibition at 5 µg/mL in the experiment with IgE (Mus musculus, 96 h) was 65%; in the experiment with IgG (Mus musculus, 96 h), 22%.

On to `CSc1c(C#N)c(=O)n2ccccc2c1C(=O)OCC1CC1` [S-2, Cyclopropylmethyl 3-cyano-2-methylthio-4H-quinolizin-4-one-1-carboxylate], for which the inhibition at 5 µg/mL worked out at 51% in the experiment on IgE (Mus musculus, 96 h) and 27% in the experiment with IgG (Mus musculus, 96 h).

In the case of `CSc1c(C#N)c(=O)n2ccccc2c1C(=O)OCCCC1CCCCC1` [S-3, 3'-Cyclohexylpropyl 3-cyano-2-methylthio-4H-quinolizin-4-one-1-carboxylate], the inhibition at 1 µg/mL in the experiment with IgE (Mus musculus, 96 h) worked out at 79%; with IgG (Mus musculus, 96 h), 35%.

Regarding `CSc1c(C#N)c(=O)n2ccccc2c1C(=O)OCC(Cl)(Cl)Cl` [S-4, 2',2',2'-Trichloroethyl 3-cyano-2-methylthio-4H-quinolizin-4-one-1-carboxylate], the inhibition at 1 µg/mL in the experiment on IgE (Mus musculus, 96 h) turned out to be 68%; in the experiment on IgG (Mus musculus, 96 h) it was 39%.

For the compound `C=CCOC(=O)c1c(SC)c(C#N)c(=O)n2ccccc12` [S-5, 2'-Propenyl 3-cyano-2-methylthio-4H-quinolizin-4-one-1-carboxylate], the inhibition at 20 µg/mL was found to be 77% with IgE (Mus musculus, 96 h, 20.0 μg/ml) and 47% in the experiment on IgG (Mus musculus, 96 h, 20.0 μg/ml).

With `C#CCOC(=O)c1c(SC)c(C#N)c(=O)n2ccccc12` [S-6, 2'-Propynl 3-cyano-2-methylthio-4H-quinolizin-4-one-1-carboxylate], the inhibition at 10 µg/mL in the experiment on IgE (Mus musculus, 96 h, 10.0 μg/ml) amounted to 63%; in the experiment with IgG (Mus musculus, 96 h, 10.0 μg/ml), 35%.

On to `CCCOC(=O)c1c(SC)c(C#N)c(=O)n2ccccc12` [S-7, Propyl 3-cyano-2-methylthio-4H-quinolizin-4-one-1-carboxylate], for which the inhibition at 40 µg/mL in the experiment on IgE (Mus musculus, 96 h) stood at 52%; in the experiment with IgG (Mus musculus, 96 h) it was 24%.

As for `CSc1c(C#N)c(=O)n2ccccc2c1C(=O)OC(C)C` [S-8, Isopropyl 3-cyano-2-methylthio-4H-quinolizin-4-one-1-carboxylate], the inhibition at 2.5 µg/mL with IgE (Mus musculus, 96 h) turned out to be 36%; in the experiment with IgG (Mus musculus, 96 h), 18%.

Regarding `CCCCOC(=O)c1c(SC)c(C#N)c(=O)n2ccccc12` [S-9, Butyl 3-cyano-2-methylthio-4H-quinolizin-4-one-1-carboxylate], the inhibition at 2.5 µg/mL in the experiment on IgE (Mus musculus, 96 h) came to 54%; with IgG (Mus musculus, 96 h) it was 17%.

Consider `CCC(C)OC(=O)c1c(SC)c(C#N)c(=O)n2ccccc12` (stereo not shown) [S-10, 1'-Methylpropyl 3-cyano-2-methylthio-4H-quinolizin-4-one-1-carboxylate], for which the inhibition at 2.5 µg/mL with IgE (Mus musculus, 96 h) is 48%; in the experiment on IgG (Mus musculus, 96 h), 27%.

Take `CSc1c(C#N)c(=O)n2ccccc2c1C(=O)OCCC(C)C` [S-11, Isopentyl 3-cyano-2-methylthio-4H-quinolizin-4-one-1-carboxylate]: the inhibition at 5 µg/mL in the experiment with IgE (Mus musculus, 96 h) is 66%; in the experiment with IgG (Mus musculus, 96 h) it was 30%.

As for `CSc1c(C#N)c(=O)n2ccccc2c1C(=O)OC1CCCC1` [S-12, Cyclopentyl 3-cyano-2-methylthio-4H-quinolizin-4-one-1-carboxylate], the inhibition at 5 µg/mL turned out to be 65% with IgE (Mus musculus, 96 h) and 32% with IgG (Mus musculus, 96 h).

Regarding `CSc1c(C#N)c(=O)n2ccccc2c1C(=O)OC1CCC1` [S-13, Cyclobutyl 3-cyano-2-methylthio-4H-quinolizin-4-one-1-carboxylate], the inhibition at 5 µg/mL came to 67% with IgE (Mus musculus, 96 h) and 9% with IgG (Mus musculus, 96 h).

For `CSc1c(C#N)c(=O)n2ccccc2c1C(=O)OC1CCCCC1` [S-14, Cyclohexyl 3-cyano-2-methylthio-4H-quinolizin-4-one-1-carboxylate], the inhibition at 1 µg/mL was 69% in the experiment on IgE (Mus musculus, 96 h) and 39% in the experiment with IgG (Mus musculus, 96 h).

Take `CSc1c(C#N)c(=O)n2ccccc2c1C(=O)OC1C=CCCC1` (stereo not shown) [S-15, 2'-Cyclohexenyl 3-cyano-2-methylthio-4H-quinolizin-4-one-1-carboxylate]: the inhibition at 40 µg/mL is 62% in the experiment with IgE (Mus musculus, 96 h) and 21% with IgG (Mus musculus, 96 h).

Regarding `CSc1c(C#N)c(=O)n2ccccc2c1C(=O)O[C@H]1CC[C@H](O)CC1` [S-16, trans-4'-Hydroxycyclohexyl 3-cyano-2-methylthio-4H-quinolizin-4-one-1-carboxylate], the inhibition at 5 µg/mL with IgE (Mus musculus, 96 h) amounted to 52%; with IgG (Mus musculus, 96 h) it was 14%.

As to `CSc1c(C#N)c(=O)n2ccccc2c1C(=O)OC1CCCCC1C` (stereo not shown) [S-17, 2'-Methylcyclohexyl 3-cyano-2-methylthio-4H-quinolizin-4-one-1-carboxylate], the inhibition at 0.25 µg/mL in the experiment on IgE (Mus musculus, 96 h) was determined as 43%; in the experiment on IgG (Mus musculus, 96 h) it was 7%.

As for `CSc1c(C#N)c(=O)n2ccc(C)cc2c1C(=O)OC1CCCCC1` [S-18, Cyclohexyl 3-cyano-8-methyl-2-methylthio-4H-quinolizin-4-one-1-carboxylate], the inhibition at 2.5 µg/mL with IgE (Mus musculus, 96 h) came out at 54%; with IgG (Mus musculus, 96 h) it was 34%.

`CSc1c(C#N)c(=O)n2ccccc2c1C(=O)OC1CCCCCC1` [S-19, Cycloheptyl 3-cyano-2-methylthio-4H-quinolizin-4-one-1-carboxylate]: the inhibition at 5 µg/mL in the experiment on IgE (Mus musculus, 96 h) worked out at 71%; with IgG (Mus musculus, 96 h) it was 27%.

With `CSc1c(C#N)c(=O)n2ccccc2c1C(=O)OC1CCCCCCC1` [S-20, Cyclooctyl 3-cyano-2-methylthio-4H-quinolizin-4-one-1-carboxylate], the inhibition at 5 µg/mL in the experiment on IgE (Mus musculus, 96 h) came out at 84%; in the experiment on IgG (Mus musculus, 96 h) it was 52%.

For `CSc1c(C#N)c(=O)n2ccccc2c1C(=O)OC1C2CC3CC(C2)CC1C3` (stereo not shown) [S-21, 2'-Adamantyl 3-cyano-2-methylthio-4H-quinolizin-4-one-1-carboxylate], the inhibition at 5 µg/mL in the experiment with IgE (Mus musculus, 96 h) was 70%; with IgG (Mus musculus, 96 h) it was 47%.

With `CSc1c(C#N)c(=O)n2ccccc2c1C(=O)OC1CCCc2ccccc21` (stereo not shown) [S-22, 1',2',3',4'-Tetrahydro-1'-naphthyl 3-cyano-2-methylthio-4H-quinolizin-4-one-1-carboxylate], the inhibition at 40 µg/mL in the experiment with IgE (Mus musculus, 96 h) came out at 82%; in the experiment on IgG (Mus musculus, 96 h), 42%.
